From patent US20140259191A1, “FISH ANESTHETIC AND METHOD” (AQUA-MOR TECHNOLOGIES LTD., priority 2011, published 2014)

Key:
catfish = assay: Anesthesia of catfish by linalool added to tank water; assay type: in vivo, Clarias gariepinus; settings: 100 ppm linalool
Description: To a four liter tank containing […] 10-month old catfish (Clarias gariepinus) of respective weights 31 g, 14 g, 24 g and 9 g and respective body lengths 17 cm, 13 cm, 16 cm and 10 cm in water at 31° C. and pH 7 was added a formulation containing 1% linalool. The formulation was added to the water to a linalool concentration of 100 ppm in the water. The fish became relaxed 2 5 minutes after addition of linalool and after 4 minutes were completely anesthetized. At 5.5 minutes the fish were removed to a recovery tank with fresh water. After 7 minutes in the recovery tank the fish resumed normal behavior.

goldfish = assay: Anesthesia of goldfish by linalool or Ho Wood oil added to tank water; assay type: in vivo, Carassius auratus auratus
Description: A one year old koi fish of body length 11 cm and which appeared to be healthy was placed in a 4 liter tank containing water at 25° C. and in which the water was circulated by means of aeration. A liquid a mixture containing 1 wt. % synthetic linalool (1 wt. % linalool, 5 wt. % 14R, 2 wt. % AF80 and 92 wt. % water) was added to the tank and manually mixed with the water so that the concentration of linalool in the water was 50 ppm. This was regarding as the starting time of the experiment; thereafter, observations were made regularly to determine the behavior of the fish in water. This continued until no response to external stimulation and complete loss of equilibrium were observed, at which point the fish was transferred to a recovery tank containing fresh water. The fish was placed near the air pump, and the time until the fish again swam and responded normally to external stimulation was recorded.
(§1) The experiment of Example 1 was repeated, using a one year old goldfish of 8.5 cm body length. […] At 9.5 minutes the fish was removed to a recovery tank with clean water. Thereafter it recovered slowly and after 35 minutes was swimming around in the tank and appeared to have resumed normal activity.
as §1, with “length, and adding the linalool formulation to a linalool concentration in the water of 75 ppm instead of 50 ppm. After 2 minutes of exposure to linalool the fish appeared to be in stress.” for “length.”, “20” for “9.5”, “activity. […]” for “activity.”
This example illustrates the effects of Linalool on Goldfish (cold water fish). The experiment was performed in a four liter tank with three 10-month old goldfish of respective weights 32 g, 30 g and 34 g and respective body lengths of 12.5 cm, 11.5 cm and 11 cm. The water temperature was 16° C. and the pH was 7. A formulation containing 1% Linalool was added to the water to a concentration of 50 ppm linalool in the water. The fish became relaxed 5 minutes after introduction of the linalool, and after 6 5 minutes there fish were completely anesthetized. After 20 minutes of exposure to linalool, the fish were removed to a recovery tank with fresh water. 15 minutes thereafter the fish had resumed normal behavior. […]
The experiment of Example 1 was repeated, using two one-year old goldfish of respective body lengths 8.5 and 7.5 cm and respective weights of 17 and 15 g, and adding the a natural source of linalool (Ho Wood oil) to a concentration of 75 ppm linalool instead of 50 ppm. […] At 4 minutes the fish were removed to a recovery tank with clean water. After 5 minutes in the recovery tank they swam around and appeared to have resumed normal activity.
The experiment of Example 21 was repeated, using two one-year old goldfish of respective body lengths 9 and 8 cm and respective weights 19 and 17.5 g, but adding Ho Wood oil to a linalool concentration of 50 ppm in the water. […] At 16.5 minutes the fish were removed to a recovery tank with clean water. After 4 minutes in the recovery tank they swam around and appeared to have resumed normal activity.

carp fish = assay: Anesthesia of carp by linalool added to tank water; assay type: in vivo, Cyprinus carpio; settings: for time after addition of linalool until fish became relaxed / time until fish completely anesthetized: pH 7
Description: To a 100 liter tank containing 462 10-month old carp fish (Cyprinus carpio) of average weight 70 g and average body length 10 cm, having water at 25° C. at pH 7 was added a formulation containing 1% linalool. The formulation was added to the water to a linalool concentration of 75 ppm in the water. The fish became relaxed 3 minutes after addition of linalool and after 5 minutes were completely anesthetized. After 15 minutes the fish were removed to a recovery tank with fresh water. After 20 minutes in the recovery tank the fish resumed normal behavior.
(§2) To a 20 liter tank containing eight 2.5-year old carp fish of average weight 1 kg and average body length 50 cm in water at 20° C. and pH 7 was added a formulation containing 1% linalool. The formulation was added to the water to a linalool concentration of 100 ppm in the water. The fish became relaxed 2 minutes after addition of linalool and after 3 minutes were completely anesthetized. At 3 minutes the fish were removed to a recovery tank with fresh water. After 7 minutes in the recovery tank the fish resumed normal behavior.
To a 20 liter tank containing eight 1.8-year old carp fish of average weight 250 g and body length 21-24 cm in water at 20° C. and pH 7 was added a formulation containing 1% linalool. The formulation was added to the water to a linalool concentration of 50 ppm in the water. The fish became relaxed 3 minutes after addition of linalool and after 7 minutes were completely anesthetized. At 17 minutes the fish were removed to a recovery tank with fresh water. After 29 minutes in the recovery tank the fish resumed normal behavior.
as §2, with “2.2-year” for “2.5-year”, “380 g” for “1 kg”, “and” for “and average”, “30-32” for “50”, “At 17” for “After 7”

[1] = Example 4: goldfish 8.5 cm, 50 ppm linalool in water
[2] = Example 5: goldfish 8.5 cm, 75 ppm linalool in water
[3] = Example 6: goldfish 8 cm, 100 ppm linalool in water
[4] = Example 11: three goldfish 25-27.5 g, 100 ppm linalool
[5] = Example 13: 462 carp, average 70 g, 75 ppm linalool, 25° C.
[6] = Example 14: eight carp, average 1 kg, 100 ppm linalool, 20° C.
[7] = Example 15: eight carp, average 250 g, 50 ppm linalool, 20° C.
[8] = Example 16: eight carp, average 380 g, 100 ppm linalool, 20° C.

Structure (SMILES): C=CC(C)(O)CCC=C(C)C (stereo not shown) [linalool]
- time until fish completely anesthetized (catfish; Example 19: catfish 9-31 g, 31° C., pH 7): 4 min
- time in recovery tank until normal behavior resumed (catfish; Example 19: catfish, removed at 5.5 minutes): 7 min
- time of exposure until complete loss of equilibrium (goldfish; [1]): 6.5 min
- time of exposure until no response to external stimulation (goldfish; [1]): 9 min
- time of exposure until partial loss of equilibrium (goldfish; [1]): 5 min
- time in recovery tank until normal activity resumed (goldfish; Example 4: goldfish 8.5 cm, 50 ppm linalool, removed to clean water at 9.5 minutes): 35 min
- time of exposure until complete loss of equilibrium (goldfish; [2]): 5 min
- time of exposure until no response to external stimulation (goldfish; [2]): 9 min
- time of exposure until partial loss of equilibrium (goldfish; [2]): 2.5 min
- time in recovery tank until normal activity resumed (goldfish; Example 5: goldfish 8.5 cm, 75 ppm linalool, removed to clean water at 20 minutes): 35 min
- time of exposure until complete loss of equilibrium (goldfish; [3]): 2 min
- time of exposure until no response to external stimulation (goldfish; [3]): 3.5 min
- time of exposure until partial loss of equilibrium (goldfish; [3]): 1.5 min
- time in recovery tank until normal activity resumed (goldfish; Example 6: goldfish 8 cm, 100 ppm linalool, removed to clean water at 4 minutes): 35 min
- mortality during a further three days of observation (goldfish; Example 7: three goldfish, average 12.5 cm, experiment of Example 1 repeated): no mortality occurred
- time in recovery tank until normal behavior resumed (goldfish; Example 9: goldfish, 50 ppm linalool, 16° C., removed after 20 minutes of exposure): 15 min
- time after introduction of linalool until fish became relaxed (goldfish; Example 9: three goldfish 30-34 g, 50 ppm linalool, 16° C., pH 7): 5 min
- time in recovery tank until normal behavior resumed (goldfish; Example 10: goldfish, 75 ppm linalool, 16° C., removed at 20 minutes): 35 min
- time until fish completely anesthetized (goldfish; Example 10: three goldfish 25-27 g, 75 ppm linalool, 16° C., pH 7): 5 min
- time in recovery tank until normal behavior resumed (goldfish; Example 11: goldfish, 100 ppm linalool, removed at 4 minutes): 20 min
- time after addition of linalool until fish became relaxed (goldfish; [4]): 1.5 min
- time until fish completely anesthetized (goldfish; [4]): 2 min
- time after addition of linalool until fish became relaxed (carp fish; [5]): 3 min
- time until fish completely anesthetized (carp fish; [5]): 5 min
- time in recovery tank until normal behavior resumed (carp fish; Example 13: carp 70 g, 75 ppm linalool, removed after 15 minutes): 20 min
- time in recovery tank until normal behavior resumed (carp fish; Example 14: carp 1 kg, 100 ppm linalool, removed at 3 minutes): 7 min
- time after addition of linalool until fish became relaxed (carp fish; [6]): 2 min
- time until fish completely anesthetized (carp fish; [6]): 3 min
- time in recovery tank until normal behavior resumed (carp fish; Example 15: carp 250 g, 50 ppm linalool, removed at 17 minutes): 29 min
- time after addition of linalool until fish became relaxed (carp fish; [7]): 3 min
- time until fish completely anesthetized (carp fish; [7]): 7 min
- time in recovery tank until normal behavior resumed (carp fish; Example 16: carp 380 g, 100 ppm linalool, removed at 3 minutes): 17 min
- time after addition of linalool until fish became relaxed (carp fish; [8]): 2 min
- time until fish completely anesthetized (carp fish; [8]): 3 min
